Measurements as given in PMC7044277 (Nature Communications, 2020).
“And” between values parts separate entries of the source, which are not always exact repeats. Identical values can stand only once.

Legend:
Type in all cases: cell-based
[1] = target: 320 non-olfactory GPCRs (Homo sapiens, UniProt P30542)
[2] = target: T1, 320 non-olfactory GPCRs (Homo sapiens, UniProt Q969V1); conditions: receptor MCHR2R; replicate values, Fig_4g
T1 construct: expressed in transfected cells; host or cells: HTLA cells

[3] = target: T2, 320 non-olfactory GPCRs (Homo sapiens, UniProt P28336); conditions: receptor NMBR; replicate values, Fig_4g
T2 construct: expressed in transfected cells; host or cells: HTLA cells

[4] = target: T3, 320 non-olfactory GPCRs (Homo sapiens, UniProt P50052)
T3 construct: expressed in transfected cells; host or cells: HTLA cells
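For Fold of Basal in this document: compound tested at 1 µM final concentration.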
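For GPCRome agonism screen response in this document: fold over basal response of each receptor without drug.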

T1 sequence (Q969V1 whole entry): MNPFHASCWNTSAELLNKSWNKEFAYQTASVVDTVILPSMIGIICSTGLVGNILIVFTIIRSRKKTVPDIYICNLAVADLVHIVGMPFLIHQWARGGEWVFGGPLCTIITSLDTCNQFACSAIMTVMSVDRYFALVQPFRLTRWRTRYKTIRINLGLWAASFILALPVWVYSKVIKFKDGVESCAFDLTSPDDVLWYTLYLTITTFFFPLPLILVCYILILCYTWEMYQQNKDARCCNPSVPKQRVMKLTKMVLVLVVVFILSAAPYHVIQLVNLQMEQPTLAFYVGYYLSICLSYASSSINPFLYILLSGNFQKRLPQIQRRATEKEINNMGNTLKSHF
Sequence of 320 non-olfactory GPCRs (Homo sapiens, UniProt P30542) (P30542 whole entry): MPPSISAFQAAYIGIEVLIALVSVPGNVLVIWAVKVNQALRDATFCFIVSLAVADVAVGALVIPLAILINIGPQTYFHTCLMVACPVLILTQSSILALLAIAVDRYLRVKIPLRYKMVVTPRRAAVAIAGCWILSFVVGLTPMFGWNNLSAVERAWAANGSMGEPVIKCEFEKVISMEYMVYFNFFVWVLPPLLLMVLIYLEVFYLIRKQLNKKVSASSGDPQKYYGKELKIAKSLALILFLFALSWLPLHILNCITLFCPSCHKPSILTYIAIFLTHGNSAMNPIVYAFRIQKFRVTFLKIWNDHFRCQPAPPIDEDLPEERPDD
T3 sequence (P50052 whole entry): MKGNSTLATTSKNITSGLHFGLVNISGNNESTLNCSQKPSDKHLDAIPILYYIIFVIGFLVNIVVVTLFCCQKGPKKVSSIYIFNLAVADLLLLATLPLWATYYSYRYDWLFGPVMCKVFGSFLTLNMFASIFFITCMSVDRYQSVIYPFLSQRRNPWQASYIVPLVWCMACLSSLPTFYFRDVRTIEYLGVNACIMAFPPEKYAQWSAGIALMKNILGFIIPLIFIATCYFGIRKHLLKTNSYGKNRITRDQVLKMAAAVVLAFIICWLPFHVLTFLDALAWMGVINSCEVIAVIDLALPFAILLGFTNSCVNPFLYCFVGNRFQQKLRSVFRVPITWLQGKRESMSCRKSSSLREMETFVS
T2 sequence (P28336 whole entry): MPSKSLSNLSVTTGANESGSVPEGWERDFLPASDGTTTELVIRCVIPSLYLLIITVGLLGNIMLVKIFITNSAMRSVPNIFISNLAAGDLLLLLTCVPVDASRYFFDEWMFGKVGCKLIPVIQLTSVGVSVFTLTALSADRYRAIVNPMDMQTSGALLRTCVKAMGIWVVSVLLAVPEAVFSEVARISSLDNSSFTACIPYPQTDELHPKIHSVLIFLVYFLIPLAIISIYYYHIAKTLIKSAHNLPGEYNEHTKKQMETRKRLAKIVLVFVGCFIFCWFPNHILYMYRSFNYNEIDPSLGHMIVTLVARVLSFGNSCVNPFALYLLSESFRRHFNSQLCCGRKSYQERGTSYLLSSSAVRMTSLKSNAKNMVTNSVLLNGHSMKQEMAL

In the case of `CCOc1cccc2cc(C(C)NCC3(O)CCCCC3)oc12` (stereo not shown) [O4LE6], the “Fold of Basal” value [1] is reported as 0.6117 and 1.0436 and 0.9318 and 0.9525, the “GPCRome agonism screen response” value [2] is reported as 1.156 and 0.4645 and 1.04 and 0.6466 and the “GPCRome agonism screen response” value [3] is reported as 0.2359 and 0.9261 and 0.9727 and 0.7093. For the same compound, the “Fold of Basal” value [4] was 1.003 and 1.182 and 1.322 and 1.107.
